From patent US20230047816A1 (priority 2018, published 2023)
Entries after “also recorded” stand apart in the source; their conditions may differ.

What was measured:
[1] = system: iPSC-derived neural precursor cells (NPC) from CLN7 patients; test: Perinuclear mitochondria in iPSC-derived neural precursor cells from CLN7 patients; type: cell-based; details: FIG. 16
[2] = system: mouse cortical primary neurons; test: MG132-induced neuronal apoptosis (annexin V/7-AAD flow cytometry); type: cell-based; details: MG132 24 hours; inhibitor 0.01 μM
Experimental: (§1) Primary cultures of C57BL/6 mice cortical neurons were prepared from fetal animals of 14.5 days of gestation, seeded at 1.8·10^5 cells/cm^2 in plastic plates coated with poly-D-lysine (10 mg/ml) and incubated in Neurobasal (Life Technologies) supplemented with 2 mM glutamine, 5 mM of glucose, 0.25 mM pyruvate and 2% B27 supplement (Life Technologies). Cells were incubated at 37° C. in a humidified 5% CO2-containing atmosphere. At 72 hours after plating, medium was replaced using Neurobasal (Life Technologies) supplemented with 2 mM glutamine, 5 mM glucose, 0.25 mM pyruvate and 2% B27 supplement (Life Technologies) minus antioxidants (MAO; i.e., lacking vitamin E, vitamin E acetate, superoxide dismutase, catalase and glutathione). […] APC/C-conjugated annexin-V and 7-amino-actinomycin D (7-AAD) (Becton Dickinson Biosciences, BDB, San Jose, Calif., USA) were used to determine quantitatively the percentage of apoptotic neurons by flow cytometry. Cells were stained with annexin V-APC and 7-AAD, following the manufacturer's instructions, and were analysed on a FACScalibur™ flow cytometer (15 mW argon ion laser tuned at 488 nm; CellQuest software, Becton Dickinson Biosciences) using the CellQuest software (BDB). Both GFP+ and GFP− cells were analyzed separately, and the annexin V-APC-stained cells that were 7-AAD-negative were considered to be apoptotic.

[3] = system: mouse cortical primary neurons; test: β-amyloid-induced neuronal apoptosis (annexin V/7-AAD flow cytometry); type: cell-based; details: β-amyloid 24 hours
Experimental: as §1

[4] = system: mouse primary cortical neurons; test: Lactate release (glycolysis) upon excitotoxic stimuli; type: cell-based; details: NMDA or glutamate 100 μM 10 minutes, then inhibitor 0.01 μM 24 hours
Experimental: To directly test the ability of the PFKFB3 inhibitor, AZ67 and Compound 1, to protect against the damage caused by excitotoxic stimuli, mouse primary cortical neurons were subjected to a short-term exposure to NMDA or glutamate (100 μM for 10 minutes), a well-known excitotoxic stimuli (Almeida and Bolahos, 2001). For NMDAR activation, neurons at 8 days in vitro were incubated with 100 μM glutamate (plus 10 μM glycine) or 100 μM NMDA (plus 10 μM glycine) for 10 minutes. Neurons were then washed and further incubated in culture medium with the PFKFB3 inhibitors for 24 hours. A colorimetric NADP/NADPH assay kit (Abcam) was used. […] NADPH was determined in 200 μl of the supernatant, after heatinged […] 60° C. for 30 minutes to decompose NADP+. Actual NADP and NADPH+ concentrations were calculated by extrapolating values to a NADPH standard curve (0-100 pmol/well).
In view that this treatment causes PFKFB3 stabilization leading to glycolytic activation and PPP inhibition (Rodriguez-Rodriguez et al., 2012), we reasoned that PFKFB3 inhibition by AZ67 and Compound 1 could abrogate these effects. […] To directly test whether this effect is associated with the control of PFKFB3 on glycolysis, we next assessed the glycolytic-end product, lactate, released to the incubation medium.

[5] = system: mouse primary cortical neurons; test: Mitochondrial ROS (MitoSox) upon excitotoxic stimuli; type: cell-based; details: NMDA and glutamate excitotoxic models; inhibitor 0.01 μM
Experimental: (§2) To directly test the ability of the PFKFB3 inhibitor, AZ67 and Compound 1, to protect against the damage caused by excitotoxic stimuli, mouse primary cortical neurons were subjected to a short-term exposure to NMDA or glutamate (100 μM for 10 minutes), a well-known excitotoxic stimuli (Almeida and Bolahos, 2001). For NMDAR activation, neurons at 8 days in vitro were incubated with 100 μM glutamate (plus 10 μM glycine) or 100 μM NMDA (plus 10 μM glycine) for 10 minutes. Neurons were then washed and further incubated in culture medium with the PFKFB3 inhibitors for 24 hours. A colorimetric NADP/NADPH assay kit (Abcam) was used. Cells were resuspended in 500 μl of NADP/NADPH extraction buffer, vortexed and centrifuged at 14,000 rpm for 5 minutes to remove insoluble material. The supernatant was used for NADPH +plus NADP+ measurement. NADPH was determined in 200 μl of the supernatant, after heatinged […] 60° C. for 30 minutes to decompose NADP+. Actual NADP and NADPH+ concentrations were calculated by extrapolating values to a NADPH standard curve (0-100 pmol/well).
Mitochondrial ROS was detected using the fluorescent probe MitoSox™ (Life Technologies). […] MitoSox™ fluorescence was assessed by flow cytometry and expressed in arbitrary units.

[6] = system: mouse primary cortical neurons; test: Apoptosis upon glutamate or NMDA (annexin V+/7AAD-); type: cell-based; details: for prevention of apoptotic neuronal death: inhibitor 0.01 μM
Experimental: as §2
To show this, neurons were treated with glutamate of NMDA, and apoptosis assessed by annexin V+/7AAD− staining using flow cytometry, as described above.

[7] = system: neurons transfected with PFK1-M; test: Excitotoxic insult in neurons overexpressing PFK1-M; type: cell-based, mouse; details: PFK1-M (muscle isoform) overexpression
Experimental: To address whether the protection caused by PFKFB3 inhibitors was a consequence of hampering the glycolytic activation (FIG. 4B), we aimed to investigate whether the overexpression of the glycolytic enzyme, PFK1-muscle isoform, could revert PFKFB3 inhibitors-mediated neuroprotection. […] Accordingly, neurons were first transfected with the full-length cDNA encoding for PFK1-M, and then subjected to the excitotoxic insult. Cells were transfected with 1.6 μg/mL of a pIRES2-EGFP plasmid vector (Invitrogen) harbouring a full-length cDNA coding for the human muscle 6-phosphofructo-1-kinase muscle isoform (PFK1-M) (accession number, NM_000289.1) using Lipofectamine LTX-PLUS Reagent (Life Technologies) according with manufacturer's protocol. Transfections were performed 24 hours before cells collection. Control cells were transfected with the empty vector. Cells were treated with excitotoxic stimuli as described above.

In the case of `Cc1noc(C)c1Cn1cc(C#N)c2cc(Oc3ccc(NC(=O)[C@@H]4CCCN4)cc3)ccc21` [AZ67, (2S)-N-[4-({3-cyano-1-[(3,5-dimethyl-1,2-oxazol-4-yl)methyl]-1H-indol-5-yl}oxy)phenyl]pyrrolidine-2-carboxamide], the “loss of perinuclear mitochondria” value [1] is reported as “rectified the loss of perinuclear mitochondria”, the “prevention of neuronal apoptosis caused by MG132” value [2] is reported as roughly 45% and the “prevention of apoptotic neuronal death caused by β-amyloid” value [3] is reported as roughly 60%. The “lactate released (activation of glycolysis)” value [4] was “fully prevented; also recorded: prevent the increase in lactate production”, the “increase in mitochondrial ROS” value [5] was “significantly prevented the increase in mitochondrial ROS; also recorded: prevent mitochondrial ROS increase” and the protection from apoptosis ([6]; NMDA and glutamate) was “protect mouse primary cortical neurons from apoptosis”. The “prevention of apoptotic neuronal death” value ([6]; NMDA) was 90%, the “prevention of apoptotic neuronal death” value ([6]; glutamate) was 76% and the “neuroprotection under PFK1-M overexpression” value [7] was “abolish the neuroprotection; also recorded: abrogates the neuroprotective effect”.
